Reference: ChEMBL document CHEMBL4038308, “Lipophosphonoxins II: Design, Synthesis, and Properties of Novel Broad Spectrum Antibacterial Agents” (J Med Chem, 2017)
In brackets after ≈: the same amount, converted by molar mass. Blank lines part the entries; values can stand above or below the compound they belong to. Activity calls are given as the source filed them. The rule behind the calls is not given here.

Assays:
[1] = test system: Pseudomonas aeruginosa; experiment: microbe, parasite or virus in culture; details: CCM 3955, 24 h
[2] = test system: Bacillus subtilis; experiment: Antibacterial activity against Bacillus subtilis assessed as inhibition of DNA synthesis at 10 mg/L after 50 mins by [3H]thymidine incorporation assay; assay type: functional
[3] = test system: Bacillus subtilis; experiment: Antibacterial activity against Bacillus subtilis assessed as inhibition of RNA synthesis at 10 mg/L after 50 mins by [3H]-uridine incorporation assay; assay type: functional
[4] = test system: Bacillus subtilis; experiment: Antibacterial activity against Bacillus subtilis assessed as inhibition of peptidoglycan synthesis at 10 mg/L after 50 mins by [3H]-N-acetylglucosamine incorporation assay; assay type: functional
[5] = test system: Bacillus subtilis; experiment: Antibacterial activity against Bacillus subtilis assessed as inhibition of plasma membrane lipids synthesis at 10 mg/L after 50 mins by [3H]-sodium acetate incorporation assay; assay type: functional
[6] = test system: Bacillus subtilis; experiment: Antibacterial activity against Bacillus subtilis assessed as inhibition of protein synthesis at 10 mg/L after 50 mins by [35S]-methionine incorporation assay; assay type: functional
[7] = test system: Lipid bilayer; experiment: Binding affinity to DOPG large unilamellar vesicle assessed as increase in fluorescence intensity at 5 mg/L after 10 mins by fluorescence assay relative to control
[8] = test system: Lipid bilayer; experiment: Binding affinity to DOPG large unilamellar vesicle assessed as Stern-Volmer quenching constant after 10 mins in presence of potassium iodide by fluorescence assay (reference value: 47.22 +/- 1.58 no_unit)
[9] = test system: Lipid bilayer; experiment: Binding affinity to DOPG large unilamellar vesicle assessed as blue shift in emission maximum at 5 mg/L after 10 mins by fluorescence assay relative to control

Compound: O=C(O)c1cn(C2CC2)c2cc(N3CCNCC3)c(F)cc2c1=O [CIPROFLOXACIN]
MIC [1]: 4 µg/mL (≈ 12.1 µM)

Compound: O=C(N[C@H](CO)[C@H](O)c1ccc([N+](=O)[O-])cc1)C(Cl)Cl
inhibition [2]: Active
inhibition [3]: Active
inhibition [4]: Active
inhibition [5]: Active
inhibition [6]: Active

fold change (FC) [7]: 3.5
KSV [8]: 0.97
Activity [9]: 25 nm
Compound: CCCCCCCCCCCCCCOP(=O)(CCN(CCCN)CCCN)OC[C@H]1O[C@@H](n2cc(-c3ccco3)c(=O)[nH]c2=O)[C@H](O)[C@@H]1O (some centres undefined)
